Paper PMC10788856, “Mimicking Nonribosomal Peptides from the Marine Actinomycete Streptomyces sp. H-KF8 Leads to Antimicrobial Peptides” (ACS Infectious Diseases, 2023)
Read-outs that look alike come from different tables or passages of the source. Square brackets hold non-standard residues; d marks the D form. Peptide text beside a SMILES is read from it. Orn = NCCC[C@H](N)C(=O)O

Tests used:
S. aureus = experiment: microbe, parasite or virus in culture; type: cell-based; conditions: 16 h
E. coli CCUG31246 [1] = type: cell-based
Protocol: MICs were performed under the same growth conditions used for mode of action analysis following the guidelines issued by the Clinical Laboratory Standardization Institute (CLSI) with slight modifications. Serial two-fold dilutions of the peptides were prepared in 1:10 BHI in a sterile 96-well plate and subsequently inoculated with 5 × 10^5 CFU/mL of E. coli CCUG31246. […] The following MICs were obtained: C3: 512 μg/mL, L3: 64 μg/mL, and L3-K: 128 μg/mL. These concentrations were used for all mechanistic experiments. Polymyxin B was used as a positive control in all assays at a final concentration of 10 μg/mL.

C. albicans = experiment: microbe, parasite or virus in culture; type: cell-based; conditions: 16 h
[2] = 37 °C, RP-HPLC
Protocol: Peptide stability in serum is another limiting factor for AMPs as novel antibiotics.[30]
Peptide serum stability was performed according to D́Aloisio et al.[30] and Chen et al.[51] with some minor modifications. The serum stability was investigated using human serum (Sigma-Aldrich) from Human male AB plasma, USA origin, sterile-filtered. 250 μL serum was temperature-equilibrated at 37 °C and 100 μL aqueous peptide solution (L2: 1 mM; L3: 0.9 mM; L3-K: 0.7 mM; and C3: 0.5 mM) was added. RP-HPLC was measured at time intervals of 0, 0.5, 1, 4, and 24 h. For RP-HPLC samples, 30 μL of peptide solution was taken, 7 μL of Fmoc-Gly solution (4 mM) was added, and 2 μL of the sample was injected to HPLC. […]
Figure S 133. RP-HPLC chromatogram (gradient from 10 to 90% acetonitrile in water over 10 min at 2
ml/min, detection at 254 nm) of peptides tested for serum stability. A) peptide L2 B) peptide L3. C)
(1 picture or pasted object on this page, not shown here)

[3] = tested on: hepatoblastoma (HepG2) cells; type: cell-based, human
Protocol: (§1) To confirm the peptide selectivity toward bacteria cells, cytotoxicity assays of synthesized peptides L2, L3, L3-K, and C3 against human embryonic kidney (HEK) and hepatoblastoma (HepG2) were performed (Figure 4). The cell viability was assessed using resazurin 24 h post peptide exposure. The line at 70% cell viability marks out the threshold for cytotoxic potential compared to the negative control.
(§2) Figure 4 Cell viability assessment using the resazurin assay 24 h post peptide exposure: (a) HepG2 and (b) HEK cells were treated with various concentrations of the peptides C3, L3, L3-K, and L2. Triton-X was used as a positive control. Cells cultured in pure cell media were used as negative controls and were considered to have 100% cell viability. The line represents the threshold for cytotoxicity level of 70% of cell viability compared to the negative control. Data are presented as the mean ± SD of three biological replicates of the HepG2 cells and the mean ± SD of two biological replicates of the HEK cells.
(§3) Cytotoxicity against human embryonic kidney (HEK) and hepatoblastoma (HepG2) cell lines was assessed. Cells were grown to an initial seeding density of 10 000 cells per well. Metabolic activity was determined in a resazurin-based assay. HEK and HepG2 cells were exposed to four different concentrations of the peptides for 24 h. Treatment with Triton X-100 at 1% v/v was used as a positive control. Following this exposure period, the cells were treated with resazurin at a final concentration of 0.015 mg/mL for 3 h. The metabolic activity was then determined in an resazurin-based assay. The fluorescence intensities were quantified in a Hidex Sense microplate reader using an excitation wavelength of 544 nm and an emission wavelength of 590 nm.

[4] = tested on: human embryonic kidney (HEK) cells; type: cell-based
Protocol: as §1, §2, §3

[5] = parameters: method as in PMID 20518462; conditions: nitrotyrosine side chain; cited from earlier work
[6] = tested on: Escherichia coli (CCUG 31246); experiment: Minimum microbicidal concentration (MMC99) assay; type: cell-based, E. coli; conditions: BHI diluted 1/100, 37 °C, median, n = 3
Protocol: The microbicidal activity of the synthetic peptides was assessed against S. aureus (ATCC 12600; American Type Culture Collection, Manassas, VA, USA), Escherichia coli (CCUG 31246; Culture Collection, University of Gothenburg, Sweden), and Candida albicans (ATCC 64549/CCUG31028) using an MMC assay, as described previously by […] et al. (specific details in Supporting Information, pages 10, 11).[28] The assay was performed in BHI diluted 1/100 (BHI100). […] page 11: Table S5. Energy and structural ensembles of synthesized peptides. […] Energy -3887.06 -3620.88 -4968.42 -2163.76 -2646.75 Van der Waals solv. Energy 117.32 91.57 183.20 -88.88 -139.89 Mean RMSD* (Å), mean±SD […] Heavy atoms 1.87 ± 0.33 1.77 ± 0.50 0.98 ± 0.34 0.63 ±0.22 2.88 ±0.62 MMC99 activity including salt stability measurements Antimicrobial activity of L2 and L3 in the presence of NaCl. 1Table S6. Peptide MMC99 (μg/ml) sin NaCl S. aureus E.coli C. albicans (mM) 2[…] 0 50 25 25 85 - - - - - - >200 >200 >200 150 - - - - - - >200 >200 >200 3L 0 12.5 12.5 25 12,5 6.3 6.3 12.5 6.3 12.5 […] 150 >400 >400 (-)2 >400 >400 >400 >200 >200 >200 […] or 150 mM NaCl. L2 and L3 were serially diluted in twofold steps with a starting dilution of 200 μg/ml […] All sample dilutions were run in duplicates (L2) or triplicates (L3). 2 The growth of S. aureus at 24 h in BHI 100 with 85 or 150 mM NaCl was reduced. Minimum microbicidal concentration (MMC), killing 99% of the inoculum. All microorganisms were cultured in brain-heart infusion broth (BHI) overnight on a shaker at 37°C. The cultures were thereafter transferred to fresh BHI broth in volumes constituting 10% of total, and incubated for an additional 2 h to reach exponential growth phase. The bacterial cultures were washed once in BHI diluted 1/100 (BHI100), followed by resuspension in BHI100. The cell suspensions were diluted to a density of […] (bacteria) or 2x10^7 CFU/ml (yeast), as estimated by optical density measurement at 590 nm. […] Serum stability Figure S 133. […] A) peptide L2 B) peptide L3. C) peptide L3-K. D) peptide C3.

E. coli CCUG31246 [7] = experiment: Bacterial cytological profiling (DAPI, FM4-64, phase contrast); type: cell-based; conditions: polymyxin B 10 μg/mL
Protocol: To gain insight into the peptides’ antimicrobial mechanisms, bacterial cytological profiling was performed. This live-cell imaging method makes use of different fluorescent dyes and protein fusions together with phase contrast microscopy to assess the phenotype of bacterial cells after antibiotic treatment.[33] Single-cell analysis then gives insight into the extent and population heterogeneity of the observed phenotypic effects. In this study, we used the DNA dye DAPI and the membrane dye FM4-64 and analyzed the effects of the compounds on cell length, nucleoid compaction, and membrane morphology (Figures 6 and S15). […] In the preparation of mechanistic studies, MICs were determined. […]
Bacterial cytological profiling was performed according to Wenzel et al.[34] […] Stained samples were spotted on 1.2% agarose films, sealed with a gene frame, and immediately imaged using a Nikon Eclipse Ti2 inverted fluorescence live-cell imaging system equipped with a CFI Plan Apochromat DM Lambda 100X Oil objective (N.A. = 1.45 and W.D. = 0.13 mm), a Photometrics, PRIME BSI camera, a Lumencor Sola SE II FISH 365 light source, and an Okolab temperature incubation chamber. Images were obtained using the NIS elements AR software version 5.21.03 and were processed and analyzed with ImageJ.[53] Quantification of microscopy images was performed using the ImageJ plugins ObjectJ[54] and MicrobeJ.[55] […]

E. coli CCUG31246 [8] = experiment: Propidium iodide staining (pore formation); type: cell-based; conditions: 1× MIC of peptide, polymyxin B 10 μg/mL; 10 and 60 min
Protocol: Due to the overall similarity of the peptides’ cytological profiles to that of polymyxin B, we further tested their ability to form pores in the cell membrane. To this end, we used the fluorescence probe propidium iodide, which cannot cross intact membranes but can enter cells through pores of sufficient size.[39]
Pore formation was investigated with the fluorescence dye propidium iodide as described previously[56] with minor modifications. E. coli CCUG31246 was grown to an OD600 of 0.3 and subsequently treated with different peptides for 10 and 60 min. Samples were stained with 1 μg/mL propidium iodide for 15 min (added 5 min before adding antibiotics for the 10 min time point and after 45 min of antibiotic treatment for the 60 min time point), spotted on 1.2% agarose films, and sealed with a gene frame. Microscopy was performed as described above. The fluorescence intensity of the different samples was analyzed with MicrobeJ. For detection of bacterial cells from phase contrast images, parameters were set to an area of 1.5-max, length of 1-max, width 0.5–2.5, curvature 0–1.5, and an angularity of 0–0.5. Fluorescence intensity parameters were set to an area of 1.5-max, length of 1-max, and width 0.5–2.5. All other parameters remained at default settings.

E. coli CCUG31246 [9] = experiment: DiSC(3)5 microscopy (membrane potential); type: cell-based; conditions: 1× MIC of peptide, polymyxin B 10 μg/mL; 10 min; 0.5 μM DiSC(3)5
Excerpt: Propidium iodide is a large organic molecule that is not suitable to detect smaller ion-conducting pores or channels induced by antimicrobials. To assess whether the peptides may form smaller membrane pores sufficient for the passage of ions, we tested their effects on the membrane potential using the fluorescence probe DiSC(3)5.[40] This dye accumulates in the cell membrane in a membrane potential-dependent manner and disassociates, when the membrane potential is dissipated. […] This effect can be clearly seen with polymyxin B (Figure 7b).
The membrane potential of E. coli CCUG31246 and E. coli MC4100 carrying pABCON2-fhuA ΔC/Δ4L was measured by DiSC(3)5 microscopy according to ref. ([40]) with minor modifications. Cells were grown in 1:10 BHI containing 50 μg/mL bovine serum albumin to an OD600 of 0.3 prior to antibiotic treatment with the respective peptides for 10 and 60 min. Samples were stained with 0.5 μM DiSC(3)5 for 15 min (added 5 min before adding antibiotics for the 10 min time point and after 45 min of antibiotic treatment for the 60 min time point). Stained samples were spotted on 1.2% agarose, sealed with a gene frame, and imaged immediately. Microscopy was performed as described above, and fluorescence intensity was analyzed with the same parameters used for propidium iodide detection.

CC(C)[C@@H](NC(=O)[C@H](CCCN)NC(=O)[C@@H](NC(=O)[C@H](CCCN)NC(=O)[C@H](Cc1c[nH]c2ccccc12)NC(=O)[C@@H](C)NC(=O)[C@H](NC(=O)[C@@H](C)N)C(C)C)[C@@H](C)O)C(=O)N[C@@H](CCCCN)C(N)=O [L2] (H-[dA][dV][dA]W[Orn]T[Orn][dV]K-NH2)
S. aureus MIC (S. aureus): >512 µg/mL
E. coli MIC (E. coli CCUG31246 [1]; CCUG31246, 16 h): >512 µg/mL
C. albicans MIC (C. albicans): >512 µg/mL
stability in human serum ([2]; human serum from male AB plasma, 250 μL serum + 100 μL aqueous peptide solution (L2 1 mM; L3 0.9 mM; L3-K 0.7 mM; C3 0.5 mM), 0, 0.5, 1, 4, 24 h, Fmoc-Gly internal standard): stable after 24 h
additional peaks / shoulder in chromatogram after 24 h in serum, total volume percentage ([2]; human serum, 24 h, detection at 254 nm): 0.4%
cytotoxicity, cell viability HepG2 [3]: no cytotoxicity at any tested concentration
cytotoxicity, cell viability HEK [4]: no cytotoxicity at any tested concentration

N[C@@H](Cc1ccc(O)c([N+](=O)[O-])c1)C(=O)O [Y-NO2]
pKa value [5]: 7.1

polymyxin B [PolB, reference compound]
E. coli MMC99 2 h ([6]; 2 h): <1.6 µg/mL
E. coli MMC99 6 h ([6]; 6 h): <1.6 µg/mL
E. coli MMC99 24 h ([6]; 24 h): <1.6 µg/mL
E. coli MIC (E. coli CCUG31246 [1]; 1:10 BHI, 5 × 10^5 CFU/mL, 37 °C, 16 h, highest concentration 512 μg/mL, median, n = 3): 2.3 µg/mL
cells with unstained (reduced FM4-64 membrane stain) phenotype after 10 min (E. coli CCUG31246 [7]): over 90%
propidium iodide uptake (E. coli CCUG31246 [8]): near-instantaneous uptake of the dye throughout the bacterial population
membrane potential, DiSC(3)5 fluorescence, 10 min (E. coli CCUG31246 [9]): clear and immediate reduction in the DiSC(3)5 fluorescence intensity
